# Target: T1, CRTH2 (Homo sapiens, UniProt Q9Y5Y4)
# T1 construct: expressed in transfected cells; host or cells: CHO cells
# T1 sequence (Q9Y5Y4 1-395): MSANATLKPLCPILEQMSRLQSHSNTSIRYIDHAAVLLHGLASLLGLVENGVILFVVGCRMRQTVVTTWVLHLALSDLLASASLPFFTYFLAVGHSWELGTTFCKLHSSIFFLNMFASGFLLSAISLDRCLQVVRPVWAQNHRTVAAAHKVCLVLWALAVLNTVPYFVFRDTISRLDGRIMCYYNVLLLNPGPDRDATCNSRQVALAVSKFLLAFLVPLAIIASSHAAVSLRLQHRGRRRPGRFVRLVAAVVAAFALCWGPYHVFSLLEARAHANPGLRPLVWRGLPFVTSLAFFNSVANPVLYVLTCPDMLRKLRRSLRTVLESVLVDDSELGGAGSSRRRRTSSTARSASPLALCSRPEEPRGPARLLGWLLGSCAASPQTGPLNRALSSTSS
# Assay: FRET based competitive immunoassay (cAMP) in CRTH2 expressing CHO cells
# Type: cell-based
# Settings: CRTH2 expressing CHO cells incubated with forskolin and PGD2; Eu3+ cryptate-labeled anti-cAMP and d2-labeled cAMP
# Description: FRET Assay: To evaluate potency compounds were tested in a FRET based competitive immunoassay in which CRTH2 expressing CHO cells were incubated in the presence of forskolin and PGD2 along with Eu3+ cryptate-labeled anti-cAMP and d2-labeled cAMP.
row,IC50 [nM],SMILES
1,31,"Cc1c(Cc2ccc(=O)n(CC(F)(F)F)n2)c2cc(F)ccc2n1CC(=O)O [Example 345, (5-fluoro-2-methyl-3-{[6-oxo-1-(2,2,2-trifluoroethyl)-1,6-dihydropyridazin-3-yl]-methyl}-1H-indol-1-yl)acetic acid]"
2,11,"Cc1c(Cc2ccc(=O)n(Cc3ccccc3)c2)c2cc(F)ccc2n1CC(=O)O [Example 346, {3-[(1-benzyl-6-oxo-1,6-dihydropyridin-3-yl)methyl]-5-fluoro-2-methyl-1H-indol-1-yl}acetic acid]"
3,11,"Cc1c(Cc2ccc(=O)n(Cc3ccccc3)c2)c2cc(Cl)ccc2n1CC(=O)O [Example 347, {3-[(1-benzyl-6-oxo-1,6-dihydropyridin-3-yl)methyl]-5-chloro-2-methyl-1H-indol-1-yl}acetic acid]"
4,82,"Cc1c(Cc2ccc(=O)n(Cc3ccccc3)c2)c2ccccc2n1CC(=O)O [Example 348, {3-[(1-benzyl-6-oxo-1,6-dihydropyridin-3-yl)methyl]-2-methyl-1H-indol-1-yl}acetic acid]"

# Reference: US20110105509A1 (Wyeth, LLC, priority 2009, published 2011)
